Values quoted from earlier work in patent US20040071803A1, “Process for preparation of anti-diabetic compositions from banyan bark” (priority 2002, published 2004).

Columns and labels:
[1] = test system: alloxan induced diabetic rats; details: single dose of 250 mg/kg or long term 100 mg/Kg/day; mild but not severe diabetes (Cherian et. al. 1992)
[2] = test system: alloxan diabetic rabbits

## CC1OC(Oc2cc3c(O)cc(O)cc3[o+]c2-c2ccc(O)cc2)C(O)C(O)C1O (stereo not drawn) [pelargonidin 3-0-α-rhamnoside]
[1]
  Antidiabetic effect in alloxan induced diabetic rats: antidiabetic effect

## Leucocyanidin 3-0-β D-galactosyl cellobioside
[1]
  Antidiabetic effect in alloxan induced diabetic rats: antidiabetic effect

## bengalinoside
[2]; fasting blood glucose (FBG) of 250 mg/dl or above (Augusti 1975)
  Effect on severely diabetic rabbits: did not have any effect
[2]; normal and mildly diabetic rabbits (Augusti 1975)
  Hypoglycemic activity relative to tolbutamide: half as active as tolbutamide
